What was measured:
[1] = tested on: 5′ fluorescein-labeled primer:template duplex; assay: Ensemble primer extension with gamma-labeled dNTP by Phi29 mutant protein; format: biochemical; details: for Ensemble Extension Activity: γ-nucleotide incorporation / Ensemble Extension Activity: activity with base-labeled nucleotides: relative to parent Phi29 exo(−) D12A/D66A; for Ensemble Extension Activity: γ-nucleotide incorporation: 0.5 μM or 5 μM gamma-labeled dNTP, 10 seconds to 5 minutes; for Ensemble Extension Activity (polymerase active): cysteine to serine variants
Source text: Table 1, below, summarizes the ability of each mutant Phi29 polymerase to incorporate gamma-labeled nucleotides (as indicated in the column entitled “Ensemble Extension Activity”), fidelity of replication (as indicated in the column entitled “Fidelity”) and for activity in a single-molecule detected system, as depicted in FIGS. 20-59′ and 69-76 and associated description (see below), and indicated in the last column, entitled “Activity on Detection System.” Each and every mutation introduced into a given Phi29 mutant protein is listed in the column entitled “Mutations”; mutations are designated by the original amino acid/its position/its replacement, e.g., V250A means that valine at position 250 was replaced by alanine by site specific mutagenesis. If two or more amino acid substitutions are made, then each is designated as above and separated by a “/”. The predicted effect of a given mutation on polymerase activity, based on structure-function analysis of Phi29 polymerase, is provided in the column entitled “Expected Effect.” The various Phi29 mutants generated via selective mutagenesis, along with any applicable results of extension studies, fidelity assays and single molecule detection studies using each mutant protein, are collectively summarized in Table 1, below. To perform the extension studies, 330 nM Phi29 mutant protein and 100 nM 5′ fluorescein-labeled primer:template duplex were co-incubated in a solution comprising 50 mM Tris (pH 7.0), 2 mM MnCl2, 2 mM DTT, 0.1% Triton-X-100, 0.01% Tween-20. The reactions were initiated by addition of 0.5 μM or 5 μM of gamma-labeled dNTP, and quenched via addition of 30 mM EDTA at timepoints ranging from 10 seconds to 5 minutes. The reaction products were then separated on a 20% denaturing acrylamide gel and imaged on a Bio-Rad Molecular Imager FX. The intensity of each reaction product was quantified using Bio-Rad Quantity One software. FIGS. 20-59′ depict the results of extension studies conducted using specific Phi29 mutants.

[2] = tested on: template specifying incorporation of a single γ-labeled nucleotide; assay: Real time on-surface single molecule detection of γ-labeled nucleotide incorporation; format: biochemical; details: for Activity on Detection System: more signals: number of signals relative to parent enzyme; for Activity on Detection System: long duration signals: relative to parent enzyme
Procedure: Real time “On surface” experiments were performed to characterize the activity of the Phi29 variants on an exemplary single molecule sequencing system (FIGS. 72A and B). Chambered slides were prepared to facilitate injection and multiple experiments data collection from several chambers using a single slide. The template specified incorporation of a single γ-labeled nucleotide. The samples were excited using a 488 nm Argon ion laser at 2.5 mW and the data were collected at 25 ms integration time. Each stream of data was collected for 1500 frames, consecutive streams were collected for ˜5 minutes by moving to new fields of views (FOVs). FRETAN software was used to obtain the donor and acceptor traces.
After trace analysis, the selected signals (with acceptor signal over background greater than 4, i.e., ASN≧4) were characterized by examining attributes including duration, ASN and timing of signal appearance (i.e., start of signals). The variants that are of special interest include Variants 2 and 3.

Row | Substance | Ensemble Extension Activity: γ-nucleotide incorporation [1] | further results
1 | K512A: Phi29 exo(−) (D12A/D66A) polymerase mutant [Variant K512A] | Slightly decreased γ- | 
2 | E375Y/V250Q: Phi29 exo(−) (D12A/D66A) polymerase mutant | decreased | 
3 | C448S: Phi29 exo(−) (D12A/D66A) polymerase mutant [Variant C448S] |  | Ensemble Extension Activity (polymerase active) [1]: Active
4 | V250A/E375A/Q380A/D456E: Phi29 exo(−) (D12A/D66A) polymerase mutant | Impaired | 
5 | E375Y/V250P: Phi29 exo(−) (D12A/D66A) polymerase mutant | no activity | 
6 | E375Y/V250W: Phi29 exo(−) (D12A/D66A) polymerase mutant | no activity | 
7 | E375Y/V250S: Phi29 exo(−) (D12A/D66A) polymerase mutant | decreased | 
8 | E486D: Phi29 exo(−) (D12A/D66A) polymerase mutant [Variant E486D] | Decreased γ-nucleotide | 
9 | N387A: Phi29 exo(−) (D12A/D66A) polymerase mutant [Variant N387A] | Significantly decreased γ- | Activity on Detection System: more signals [2]: Fewer signals.
10 | E375W: Phi29 exo(−) (D12A/D66A) polymerase mutant [Variant E375W] | Increased γ-nucleotide | 
11 | E375Y/V250T: Phi29 exo(−) (D12A/D66A) polymerase mutant | decreased | 
12 | K478A: Phi29 exo(−) (D12A/D66A) polymerase mutant [Variant K478A] | Decreased γ-nucleotide | 
13 | D456S: Phi29 exo(−) (D12A/D66A) polymerase mutant [Variant D456S] | Impaired | Activity on Detection System: more signals [2]: Fewer signals.
14 | V250I/E375A/Q380A: Phi29 exo(−) (D12A/D66A) polymerase mutant | Decreased rate | 
15 | E375A/Q380A: Phi29 exo(−) (D12A/D66A) polymerase mutant | More efficient | Activity on Detection System: more signals [2]: 3.5x more signals.
16 | L384R: Phi29 exo(−) (D12A/D66A) polymerase mutant [Variant L384R] | Slightly decreased γ- | 
17 | C22S: Phi29 exo(−) (D12A/D66A) polymerase mutant [Variant C22S] |  | Ensemble Extension Activity (polymerase active) [1]: Active
18 | E375Y/V250K: Phi29 exo(−) (D12A/D66A) polymerase mutant | no activity | 
19 | E375Y: Phi29 exo(−) (D12A/D66A) polymerase mutant [Variant E375Y] | More efficient | extension (FIG. 70C, 70D) ([1]; ensemble PAGE analyses, γ-nucleotides): most significant increase in extension; Activity on Detection System: more signals [2]: 3x more signals.; Activity on Detection System: long duration signals [2]: More long duration
20 | K371A: Phi29 exo(−) (D12A/D66A) polymerase mutant [Variant K371A] | Slightly lower than | 
21 | V250I/E375Y: Phi29 exo(−) (D12A/D66A) polymerase mutant | Decreased rate | 
22 | K383P: Phi29 exo(−) (D12A/D66A) polymerase mutant [Variant K383P] | decreased γ-nucleotide | 

Row | Substance | Ensemble Extension Activity: γ-nucleotide incorporation [1] | further results
23 | C290S/C448S/C530S: Phi29 exo(−) (D12A/D66A) polymerase mutant |  | Ensemble Extension Activity (polymerase active) [1]: Slightly less
24 | C22S/C290S/C530S: Phi29 exo(−) (D12A/D66A) polymerase mutant |  | Ensemble Extension Activity (polymerase active) [1]: Slightly less
25 | E375Y/V250C: Phi29 exo(−) (D12A/D66A) polymerase mutant | decreased | 
26 | K383A: Phi29 exo(−) (D12A/D66A) polymerase mutant [Variant K383A] | Slightly lower than | 
27 | V250I: Phi29 exo(−) (D12A/D66A) polymerase mutant [Variant V250I] | Decreased rate | Activity on Detection System: long duration signals [2]: More long duration
28 | Y254F: Phi29 exo(−) (D12A/D66A) polymerase mutant [Variant Y254F] | Decreased γ-nucleotide | Ensemble Extension Activity: activity with base-labeled nucleotides [1]: incorporation, but increased
29 | E375Y/V250G: Phi29 exo(−) (D12A/D66A) polymerase mutant | no activity | 
30 | E375Y/V250H: Phi29 exo(−) (D12A/D66A) polymerase mutant | decreased rate | 
31 | K383R: Phi29 exo(−) (D12A/D66A) polymerase mutant [Variant K383R] | Slightly lower than | 
32 | Y254V: Phi29 exo(−) (D12A/D66A) polymerase mutant [Variant Y254V] | Decreased γ-nucleotide | Ensemble Extension Activity: activity with base-labeled nucleotides [1]: incorporation, but increased
33 | K371T: Phi29 exo(−) (D12A/D66A) polymerase mutant [Variant K371T] | Slightly lower than | 
34 | E375Y/V250R: Phi29 exo(−) (D12A/D66A) polymerase mutant | no activity | 
35 | V250I/E375C: Phi29 exo(−) (D12A/D66A) polymerase mutant | Decreased rate | 
36 | E375Y/V250D: Phi29 exo(−) (D12A/D66A) polymerase mutant | no activity | 
37 | C22S/C448S/C530S: Phi29 exo(−) (D12A/D66A) polymerase mutant |  | Ensemble Extension Activity (polymerase active) [1]: Slightly less
38 | S388G: Phi29 exo(−) (D12A/D66A) polymerase mutant [Variant S388G] | Decreased γ-nucleotide | 
39 | E375Y/V250L: Phi29 exo(−) (D12A/D66A) polymerase mutant | decreased | 
40 | C530S: Phi29 exo(−) (D12A/D66A) polymerase mutant [Variant C530S] |  | Ensemble Extension Activity (polymerase active) [1]: Active
41 | E486A: Phi29 exo(−) (D12A/D66A) polymerase mutant [Variant E486A] | Slightly decreased γ- | 
42 | N387Y: Phi29 exo(−) (D12A/D66A) polymerase mutant [Variant N387Y] | Significantly decreased γ- | 
43 | C22S/C290S/C448S: Phi29 exo(−) (D12A/D66A) polymerase mutant |  | Ensemble Extension Activity (polymerase active) [1]: Slightly less
44 | C290S: Phi29 exo(−) (D12A/D66A) polymerase mutant [Variant C290S] |  | Ensemble Extension Activity (polymerase active) [1]: Active

Source: patent US20110165652A1, “COMPOSITIONS, METHODS AND SYSTEMS FOR SINGLE MOLECULE SEQUENCING” (LIFE TECHNOLOGIES CORPORATION, priority 2008, published 2011)
